Results on one compound are retold here after publication PMC12693167, “Design, Synthesis and Anticancer Activity of 6-Substituted-1-(3,4,5-trimethoxyphenyl)-1H-indole Against Tubulin Polymerisation” (Molecules, 2025).

One assay has as its system HeLa cells. Description: CCK-8 antiproliferative assay, HeLa. The note with it: Homo sapiens, cell viability (CCK-8), 48 h. The assay is classed as cell-based. The procedure: (§1) To evaluate the anticancer potential of the synthesized compounds, a panel of six human and murine cancer cell lines representing different tissue origins was selected, including MCF-7 (human breast adenocarcinoma), MDA-MB-231 (human triple-negative breast cancer), A549 (human non-small cell lung cancer), HeLa (human cervical cancer), A375 (human melanoma), and B16-F10 (murine melanoma) (Table 2). […] DMSO was used as the vehicle control, and all experiments were performed in triplicate to ensure reproducibility.
(§2) Human breast cancer cells (MCF-7), human lung cancer cells (A549), human cervical cancer cells (HeLa), human triple-negative breast cancer cells (MDA-MB-231), and human malignant melanoma cells (A375) were cultured in DMEM. Mouse melanoma cells (B16F10) were maintained in RPMI-1640 medium. All media were supplemented with 10% fetal bovine serum and 1% penicillin-streptomycin (Life Technologies, Carlsbad, CA, USA) and maintained at 37 °C in a humidified atmosphere with 5% CO2.
(§3) The cytotoxicity of the test compounds was evaluated against MCF-7, A549, HeLa, MDA-MB-231, A375, and B16F10 using the CCK-8 assay. Cells were seeded into 96-well plates at a density of 5000 cells/well. After removing the medium, 100 μL of medium with 0.1% DMSO containing test compounds at different concentrations was added to each well and incubated at 37 °C for another 48 h. The CCK-8 solution was added and incubated for another 1 h, and then, the absorbance was detected with a microplate reader at a wavelength of 450 nm. The IC50 values were calculated by nonlinear regression analysis using GraphPad Prism 8.0.2. All the experiments were repeated at least three times.
In general terms: Formazan colour is commonly taken as a measure of viable cells.

In a further assay the test system is B16-F10 cells. Description: CCK-8 antiproliferative assay, B16-F10. The class given is cell-based, murine. The conditions noted are these: Mus musculus, cell viability (CCK-8), 48 h. The procedure: as §1, §2, §3
The test system of a further assay is MCF-7 cells. Description: Annexin V-FITC/PI apoptosis assay. The assay is classed as cell-based, human. The conditions noted are these: 48 h. The procedure:
Given that mitotic arrest induced by tubulin polymerization inhibitors is commonly associated with apoptosis, an Annexin V-FITC/propidium iodide (PI) assay was conducted to evaluate the pro-apoptotic effect of compound 3g in MCF-7 cells.
MCF-7 cells were seeded into 6-well plates and cultured overnight. After treating with compound 3g (0.1, 1, and 10 μM) for 48 h, cells were harvested and suspended in binding buffer containing annexin V-FITC (0.5 mg/mL) and PI (0.5 mg/mL). After that, samples were incubated for 20 min in the dark and analyzed with a flow cytometer.
Figure 7 Effects of compound 3g on apoptosis in MCF-7 cells. (A) Apoptosis induction by compound 3g in MCF-7 cells. Cells were treated with increasing concentrations of 3g (0.1, 1, and 10 μM) for 48 h, followed by Annexin V-FITC/PI staining and flow cytometric analysis. Cell populations were categorized as necrotic (upper left quadrant), late apoptotic (upper right), viable (lower left), and early apoptotic (lower right). (B) Quantification of apoptotic populations. Bar graphs show the percentage of cells in each apoptotic stage after treatment. Data are presented as mean ± SD from three independent experiments. Statistical significance was determined by one-way ANOVA followed by Tukey’s post hoc test. TEXT PRINTED IN THE PICTURE: (A) Control: Q1(20.37%); Q2(15.42%); Q4(59.96%); Q3(4.25%) | (A) no label printed: Q1(8.46%) (0.1 μM); Q2(23.10%) (0.1 μM); Q4(59.68%) (0.1 μM); Q3(8.75%) (0.1 μM); Q1(8.98%) (1 μM); Q2(29.15%) (1 μM); Q4(50.67%) (1 μM); Q3(11.19%) (1 μM); Q1-UL(12.21%) (10 μM); Q1-UR(40.63%) (10 μM); Q1-LL(34.55%) (10 μM); Q1-LR(12.61%) (10 μM) DOUBTS OF THE COPYIST ABOUT THIS PICTURE: The picture prints no label for the treated substance; only the concentrations 0.1 μM, 1 μM and 10 μM are printed over the plots, so they are given as conditions. / Control is untreated cells rather than a substance; it is listed because quadrant percentages are printed with that name. / The quadrant print is very small, so 3, 5, 6, 8 and 9 cannot be told apart with certainty in any of these values. / Control: Q1 20.37%, Q2 15.42%, Q4 59.96%, Q3 4.25% are best readings. / 0.1 μM: Q1 8.46%, Q2 23.10%, Q4 59.68%, Q3 8.75% are best readings. / 1 μM: Q1 8.98%, Q2 29.15%, Q4 50.67%, Q3 11.19% are best readings. / 10 μM: Q1-UL 12.21%, Q1-UR 40.63%, Q1-LL 34.55%, Q1-LR 12.61% are best readings.

In general, IC50 refers to the midpoint of a concentration-inhibition curve. Read a low IC50 as higher potency. As for `COc1cc(-n2ccc3ccc(-c4ccc(C)c(C#N)c4)cc32)cc(OC)c1OC` [3g, 2-methyl-5-(1-(3,4,5-trimethoxyphenyl)-1H-indol-6-yl)benzonitrile], the IC50 in the assay on HeLa cells came to 6.1 ± 0.31 µM; in the assay with B16-F10 cells it was 1.69 ± 0.41 µM. For the same compound, in the assay on MCF-7 cells (10 μM), the apoptosis induction entry is given as “significantly inducing apoptosis”. The apoptotic cell populations entry with MCF-7 cells (0.1, 1 and 10 μM) is given as “dose-dependent increase”. Besides, in the assay with MCF-7 cells (Homo sapiens, MCF7, 0.1 μM, read-out: viable cells (lower left quadrant, Q4)), the viability at 0.1 µM turned out to be 59.7%. The viability at 1 µM with MCF-7 cells (Homo sapiens, MCF7, 1 μM, read-out: viable cells (lower left quadrant, Q4)) was 50.7%. In addition, the viability at 10 µM in the assay on MCF-7 cells (Homo sapiens, MCF7, 10 μM, read-out: viable cells (lower left quadrant, Q1-LL)) stood at 34.5%.
